This note sets out measurements from US10538554B2, “Peptides and uses therefor as antiviral agents” (priority 2015, dated 2020).

Bridge positions count the residues as written; N and C are the ends. Square brackets hold non-standard residues; d marks the D form. Peptide text beside a SMILES is read from it.

In one assay the test system is H3N8 A/Miami/2/63. The settings on record: A/Miami/2/63, 48 h, 500 μM.
Assay [1] deals with H1N1 A1/Malaysia/302/1954. The settings on record: A1/Malaysia/302/1954, 48 h; for % inhibition H1N1: 500 μM; for % Inhibition: 1 μM.

On to `CSCC[C@H]1NC(=O)[C@@H](Cc2ccccc2)NC(=O)[C@@H](CCCNC(=N)N)NC(=O)[C@@H](CO)NC(=O)[C@@H](CCCCN)NC(=O)[C@@H]([C@H](C)O)NC(=O)[C@H](N)CSSC[C@H](C(=O)O)NC(=O)[C@@H](CC(N)=O)NC1=O` [PSP 11, H-ctksrfmnc-OH] (H-[dC][dT][dK][dS][dR][dF][dM][dN][dC]-OH; disulfide 1-9), for which the “% inhibition H3N8” value with H3N8 A/Miami/2/63 came out at 67%. In assay [1], the “% inhibition H1N1” value was found to be 5.8%.

As to `CC[C@@H](C)[C@H]1NC(=O)[C@@H](Cc2ccccc2)NC(=O)[C@@H](CCCNC(=N)N)NC(=O)[C@@H](CO)NC(=O)[C@@H](CS)NC(=O)[C@@H]([C@H](C)O)NC(=O)[C@H](NC(=O)[C@@H](CCCCN)NC(=O)[C@@H](CCCCN)NC(=O)[C@@H](CCCNC(=N)N)NC(=O)[C@H](N)CCCNC(=N)N)CSSC[C@H](C(=O)O)NC(=O)[C@@H](CC(N)=O)NC1=O` [PSP II A2, H-rrkkctcsrfinc-OH] (H-[dR][dR][dK][dK][dC][dT][dC][dS][dR][dF][dI][dN][dC]-OH; disulfide 5-13), in the assay on H3N8 A/Miami/2/63, the “% inhibition H3N8” value is recorded as 44.4%. Besides, the “% inhibition H1N1” value in assay [1] amounted to 1.7%.

The term % Inhibition denotes the relative decrease from the control value, in per cent. Read a low % Inhibition as a weak effect. With `CC[C@@H](C)[C@H]1NC(=O)[C@@H](C)NC(=O)[C@@H]([C@H](C)O)NC(=O)[C@@H](Cc2ccccc2)NC(=O)[C@@H](Cc2c[nH]c3ccccc23)NC(=O)[C@@H](Cc2c[nH]c3ccccc23)NC(=O)[C@H](NC(=O)[C@H](CCCCN)NC(=O)[C@H](CCCCN)NC(=O)[C@H](CCCNC(=N)N)NC(=O)[C@@H](N)CCCNC(=N)N)CSSC[C@H](C(=O)O)NC(=O)[C@@H](C)NC1=O` [PSP VII A1, H-RRKKcwwftaiac-OH] (H-RRKK[dC][dW][dW][dF][dT][dA][dI][dA][dC]-OH; disulfide 5-13), the “% Inhibition” value in assay [1] was found to be 25.2%.

Consider `CC[C@@H](C)[C@H]1NC(=O)[C@@H](CS)NC(=O)[C@@H]([C@H](C)O)NC(=O)[C@@H](Cc2ccccc2)NC(=O)[C@@H](Cc2c[nH]c3ccccc23)NC(=O)[C@@H](Cc2c[nH]c3ccccc23)NC(=O)[C@H](NC(=O)[C@H](CCCCN)NC(=O)[C@H](CCCCN)NC(=O)[C@H](CCCNC(=N)N)NC(=O)[C@@H](N)CCCNC(=N)N)CSSC[C@H](C(=O)O)NC(=O)[C@@H](C)NC1=O` [PSP VII A2, H-RRKKcwwftciac-OH] (H-RRKK[dC][dW][dW][dF][dT][dC][dI][dA][dC]-OH; disulfide 5-13), for which the “% Inhibition” value in assay [1] came to 11.9%.

Turning to `CC[C@@H](C)[C@H]1NC(=O)[C@@H](CC(=O)O)NC(=O)[C@@H]([C@H](C)O)NC(=O)[C@@H](Cc2ccccc2)NC(=O)[C@@H](Cc2c[nH]c3ccccc23)NC(=O)[C@@H](Cc2c[nH]c3ccccc23)NC(=O)[C@H](NC(=O)[C@H](CCCCN)NC(=O)[C@H](CCCCN)NC(=O)[C@H](CCCNC(=N)N)NC(=O)[C@@H](N)CCCNC(=N)N)CSSC[C@H](C(=O)O)NC(=O)[C@@H](C)NC1=O` [PSP VII A3, H-RRKKcwwftdiac-OH] (H-RRKK[dC][dW][dW][dF][dT][dD][dI][dA][dC]-OH; disulfide 5-13), in assay [1], the “% Inhibition” value is given as 9.5%.

As to `CC[C@@H](C)[C@H]1NC(=O)[C@@H](CCC(=O)O)NC(=O)[C@@H]([C@H](C)O)NC(=O)[C@@H](Cc2ccccc2)NC(=O)[C@@H](Cc2c[nH]c3ccccc23)NC(=O)[C@@H](Cc2c[nH]c3ccccc23)NC(=O)[C@H](NC(=O)[C@H](CCCCN)NC(=O)[C@H](CCCCN)NC(=O)[C@H](CCCNC(=N)N)NC(=O)[C@@H](N)CCCNC(=N)N)CSSC[C@H](C(=O)O)NC(=O)[C@@H](C)NC1=O` [PSP VII A4, H-RRKKcwwfteiac-OH] (H-RRKK[dC][dW][dW][dF][dT][dE][dI][dA][dC]-OH; disulfide 5-13), the “% Inhibition” value in assay [1] was 3.8%.

With `CC[C@@H](C)[C@H]1NC(=O)CNC(=O)[C@@H]([C@H](C)O)NC(=O)[C@@H](Cc2ccccc2)NC(=O)[C@@H](Cc2c[nH]c3ccccc23)NC(=O)[C@@H](Cc2c[nH]c3ccccc23)NC(=O)[C@H](NC(=O)[C@H](CCCCN)NC(=O)[C@H](CCCCN)NC(=O)[C@H](CCCNC(=N)N)NC(=O)[C@@H](N)CCCNC(=N)N)CSSC[C@H](C(=O)O)NC(=O)[C@@H](C)NC1=O` [PSP VII A5, H-RRKKcwwftGiac-OH] (H-RRKK[dC][dW][dW][dF][dT]G[dI][dA][dC]-OH; disulfide 5-13), the “% Inhibition” value in assay [1] was determined as 9.5%.

On to `CC[C@@H](C)[C@H]1NC(=O)[C@@H](Cc2c[nH]cn2)NC(=O)[C@@H]([C@H](C)O)NC(=O)[C@@H](Cc2ccccc2)NC(=O)[C@@H](Cc2c[nH]c3ccccc23)NC(=O)[C@@H](Cc2c[nH]c3ccccc23)NC(=O)[C@H](NC(=O)[C@H](CCCCN)NC(=O)[C@H](CCCCN)NC(=O)[C@H](CCCNC(=N)N)NC(=O)[C@@H](N)CCCNC(=N)N)CSSC[C@H](C(=O)O)NC(=O)[C@@H](C)NC1=O` [PSP VII A7, H-RRKKcwwfthiac-OH] (H-RRKK[dC][dW][dW][dF][dT][dH][dI][dA][dC]-OH; disulfide 5-13), for which, in assay [1], the “% Inhibition” value is recorded as 47.1%.

For `CC[C@@H](C)[C@H]1NC(=O)[C@@H]([C@H](C)O)NC(=O)[C@@H](Cc2ccccc2)NC(=O)[C@@H](Cc2c[nH]c3ccccc23)NC(=O)[C@@H](Cc2c[nH]c3ccccc23)NC(=O)[C@H](NC(=O)[C@H](CCCCN)NC(=O)[C@H](CCCCN)NC(=O)[C@H](CCCNC(=N)N)NC(=O)[C@@H](N)CCCNC(=N)N)CSSC[C@H](C(=O)O)NC(=O)[C@@H](C)NC(=O)[C@@H]([C@H](C)CC)NC1=O` [PSP VII A8, H-RRKKcwwftiiac-OH] (H-RRKK[dC][dW][dW][dF][dT][dI][dI][dA][dC]-OH; disulfide 5-13), the “% Inhibition” value in assay [1] is reported as 84.8%.

Consider `CC[C@@H](C)[C@H]1NC(=O)[C@@H](CCCCN)NC(=O)[C@@H]([C@H](C)O)NC(=O)[C@@H](Cc2ccccc2)NC(=O)[C@@H](Cc2c[nH]c3ccccc23)NC(=O)[C@@H](Cc2c[nH]c3ccccc23)NC(=O)[C@H](NC(=O)[C@H](CCCCN)NC(=O)[C@H](CCCCN)NC(=O)[C@H](CCCNC(=N)N)NC(=O)[C@@H](N)CCCNC(=N)N)CSSC[C@H](C(=O)O)NC(=O)[C@@H](C)NC1=O` [PSP VII A9, H-RRKKcwwftkiac-OH] (H-RRKK[dC][dW][dW][dF][dT][dK][dI][dA][dC]-OH; disulfide 5-13), for which, in assay [1], the “% Inhibition” value amounted to 17.4%.

For `CC[C@@H](C)[C@H]1NC(=O)[C@@H](CC(C)C)NC(=O)[C@@H]([C@H](C)O)NC(=O)[C@@H](Cc2ccccc2)NC(=O)[C@@H](Cc2c[nH]c3ccccc23)NC(=O)[C@@H](Cc2c[nH]c3ccccc23)NC(=O)[C@H](NC(=O)[C@H](CCCCN)NC(=O)[C@H](CCCCN)NC(=O)[C@H](CCCNC(=N)N)NC(=O)[C@@H](N)CCCNC(=N)N)CSSC[C@H](C(=O)O)NC(=O)[C@@H](C)NC1=O` [PSP VII A10, H-RRKKcwwftliac-OH] (H-RRKK[dC][dW][dW][dF][dT][dL][dI][dA][dC]-OH; disulfide 5-13), the “% Inhibition” value in assay [1] amounted to 35.7%.

Regarding `CC[C@@H](C)[C@H]1NC(=O)[C@@H](CCSC)NC(=O)[C@@H]([C@H](C)O)NC(=O)[C@@H](Cc2ccccc2)NC(=O)[C@@H](Cc2c[nH]c3ccccc23)NC(=O)[C@@H](Cc2c[nH]c3ccccc23)NC(=O)[C@H](NC(=O)[C@H](CCCCN)NC(=O)[C@H](CCCCN)NC(=O)[C@H](CCCNC(=N)N)NC(=O)[C@@H](N)CCCNC(=N)N)CSSC[C@H](C(=O)O)NC(=O)[C@@H](C)NC1=O` [PSP VII A11, H-RRKKcwwftmiac-OH] (H-RRKK[dC][dW][dW][dF][dT][dM][dI][dA][dC]-OH; disulfide 5-13), the “% Inhibition” value in assay [1] turned out to be 9.8%.

As for `CC[C@@H](C)[C@H]1NC(=O)[C@@H](CC(N)=O)NC(=O)[C@@H]([C@H](C)O)NC(=O)[C@@H](Cc2ccccc2)NC(=O)[C@@H](Cc2c[nH]c3ccccc23)NC(=O)[C@@H](Cc2c[nH]c3ccccc23)NC(=O)[C@H](NC(=O)[C@H](CCCCN)NC(=O)[C@H](CCCCN)NC(=O)[C@H](CCCNC(=N)N)NC(=O)[C@@H](N)CCCNC(=N)N)CSSC[C@H](C(=O)O)NC(=O)[C@@H](C)NC1=O` [PSP VII A12, H-RRKKcwwftniac-OH] (H-RRKK[dC][dW][dW][dF][dT][dN][dI][dA][dC]-OH; disulfide 5-13), the “% Inhibition” value in assay [1] is 55.2%.

For `CC[C@@H](C)[C@H]1NC(=O)[C@H]2CCCN2C(=O)[C@@H]([C@H](C)O)NC(=O)[C@@H](Cc2ccccc2)NC(=O)[C@@H](Cc2c[nH]c3ccccc23)NC(=O)[C@@H](Cc2c[nH]c3ccccc23)NC(=O)[C@H](NC(=O)[C@H](CCCCN)NC(=O)[C@H](CCCCN)NC(=O)[C@H](CCCNC(=N)N)NC(=O)[C@@H](N)CCCNC(=N)N)CSSC[C@H](C(=O)O)NC(=O)[C@@H](C)NC1=O` [PSP VII A13, H-RRKKcwwftpiac-OH] (H-RRKK[dC][dW][dW][dF][dT][dP][dI][dA][dC]-OH; disulfide 5-13), in assay [1], the “% Inhibition” value was determined as 41.9%.

Consider `CC[C@@H](C)[C@H]1NC(=O)[C@@H](CCC(N)=O)NC(=O)[C@@H]([C@H](C)O)NC(=O)[C@@H](Cc2ccccc2)NC(=O)[C@@H](Cc2c[nH]c3ccccc23)NC(=O)[C@@H](Cc2c[nH]c3ccccc23)NC(=O)[C@H](NC(=O)[C@H](CCCCN)NC(=O)[C@H](CCCCN)NC(=O)[C@H](CCCNC(=N)N)NC(=O)[C@@H](N)CCCNC(=N)N)CSSC[C@H](C(=O)O)NC(=O)[C@@H](C)NC1=O` [PSP VII A14, H-RRKKcwwftqiac-OH] (H-RRKK[dC][dW][dW][dF][dT][dQ][dI][dA][dC]-OH; disulfide 5-13), for which the “% Inhibition” value in assay [1] was found to be 21.9%.

With `CC[C@@H](C)[C@H]1NC(=O)[C@@H](CCCNC(=N)N)NC(=O)[C@@H]([C@H](C)O)NC(=O)[C@@H](Cc2ccccc2)NC(=O)[C@@H](Cc2c[nH]c3ccccc23)NC(=O)[C@@H](Cc2c[nH]c3ccccc23)NC(=O)[C@H](NC(=O)[C@H](CCCCN)NC(=O)[C@H](CCCCN)NC(=O)[C@H](CCCNC(=N)N)NC(=O)[C@@H](N)CCCNC(=N)N)CSSC[C@H](C(=O)O)NC(=O)[C@@H](C)NC1=O` [PSP VII A15, H-RRKKcwwftriac-OH] (H-RRKK[dC][dW][dW][dF][dT][dR][dI][dA][dC]-OH; disulfide 5-13), in assay [1], the “% Inhibition” value was determined as 39.1%.
